Values of other authors, collected in patent US20070293534A1, “Process for the preparation of mivacurium chloride” (FARMABIOS S.P.A., priority 2006, published 2007).

Details: for neuromuscolar blocking potencies compared with each other: trans-trans versus cis-trans diastereoisomer

| Compound | neuromuscolar blocking potencies compared with each other | neuromuscolar blocking potency relative to the other two diastereoisomers (fraction of the potency of the trans-trans and cis-trans diastereoisomers, estimated) |
| --- | --- | --- |
| COc1cc2c(cc1OC)[C@@H](Cc1cc(OC)c(OC)c(OC)c1)[N@@+](C)(CCCOC(=O)CC/C=C/CCC(=O)OCCC[N@+]1(C)CCc3cc(OC)c(OC)cc3[C@H]1Cc1cc(OC)c(OC)c(OC)c1)CC2.[Cl-].[Cl-] [cis-trans] | not significantly different from each other |  |
| COc1cc2c(cc1OC)[C@@H](Cc1cc(OC)c(OC)c(OC)c1)[N@+](C)(CCCOC(=O)CC/C=C/CCC(=O)OCCC[N@+]1(C)CCc3cc(OC)c(OC)cc3[C@H]1Cc1cc(OC)c(OC)c(OC)c1)CC2.[Cl-].[Cl-] [trans-trans] | not significantly different from each other |  |
| COc1cc2c(cc1OC)[C@@H](Cc1cc(OC)c(OC)c(OC)c1)[N@@+](C)(CCCOC(=O)CC/C=C/CCC(=O)OCCC[N@@+]1(C)CCc3cc(OC)c(OC)cc3[C@H]1Cc1cc(OC)c(OC)c(OC)c1)CC2.[Cl-].[Cl-] (single isomer, unassigned) [cis-cis diastereoisomer] |  | approximately one tenth |
